Values quoted from earlier work, collected in patent US20110281920A1, “INJECTABLE PARASITICIDAL FORMULATIONS OF LEVAMISOLE AND MACROCYCLIC LACTONES” (priority 2010, published 2011).

Columns and labels:
[1] = lactating mammals; ratio of 1 = even distribution between milk and plasma

Row | Compound | Solubility in water | milk to plasma partition ratio [1]
1 | c1ccc([C@H]2CN3CCSC3=N2)cc1 [Levamisole] | water soluble | –
2 | eprinomectin | nearly water insoluble | ~0.2
